According to patent US9150529B2, “Piperazine derivatives, methods for preparing same, and uses thereof in the treatment of insulin resistance” (METABOLYS, priority 2011, dated 2015):

Test system: db/db mouse
Assay: Antidiabetic activity in db/db mouse (drop in glycaemia after oral administration)
Assay type: in vivo
Settings: 8 weeks old, 200 mg/kg per os, blood from tail, glucometer; for Drop in glycaemia (in % of the initial value) After 1 hour: 1 hour after administration; for Drop in glycaemia (in % of the initial value) After 2 hours: 2 hours after administration
Protocol: The antidiabetic activity of the compounds of formula (I) orally on a type 2 diabetes animal model, the db/db mouse, was tested. Diabetic mice are used at the age of 8 weeks; they then have very high hyperglycaemia. The animals are stabilised at a minimum for one week after reception and up to the day of experimentation in an animal house at a temperature regulated at 21°-22° C. and subjected to a fixed cycle of light (from 7 a.m. to 7 p.m.) and darkness (from 7 p.m. to 7 a.m.). Their food consisted of a maintenance regime; water and food were supplied “ad libitum”. The mice are treated orally with the product to be tested (200 mg/kg per os) in suspension in a mixture of water and methyl cellulose or the vehicle (mixture of water and methyl cellulose) in the morning of the day of the experimentation. Just before the administration of the product and one and two hours after the administration of the product, a blood sample (one drop of blood) is taken following a small incision in the tail for determining glycaemia. This glycaemia is measured by means of a glucometer (Lifescan OneTouch Ultra, LifeScan, Johnson-Johnson Company) and OneTouchUltra glycaemia measurement strips.

Compound: COc1ccc(N2CCN(CCOc3ccc(C(=O)CCC(=O)O)cc3)CC2)cc1 [Compound 2]
- Drop in glycaemia (in % of the initial value) After 1 hour: 7%
- Drop in glycaemia (in % of the initial value) After 2 hours: 12%

Compound: O=C(O)CCC(=O)c1ccc(OCCN2CCN(c3ccccc3F)CC2)cc1 [Compound 3]
- Drop in glycaemia (in % of the initial value) After 1 hour: 23%
- Drop in glycaemia (in % of the initial value) After 2 hours: 29%

Compound: O=C(O)CCC(=O)c1ccc(OCCN2CCN(c3cccc(F)c3)CC2)cc1 [Compound 4]
- Drop in glycaemia (in % of the initial value) After 1 hour: 9%
- Drop in glycaemia (in % of the initial value) After 2 hours: 20%

Compound: O=C(O)CCC(=O)c1ccc(OCCN2CCN(c3ccc(F)cc3)CC2)cc1 [Compound 5]
- Drop in glycaemia (in % of the initial value) After 1 hour: 5%
- Drop in glycaemia (in % of the initial value) After 2 hours: 23%

Compound: O=C(O)CCC(=O)c1ccc(OCCN2CCN(c3ccccn3)CC2)cc1 [Compound 10]
- Drop in glycaemia (in % of the initial value) After 1 hour: 23%
- Drop in glycaemia (in % of the initial value) After 2 hours: 39%

Compound: COc1cccc(N2CCN(CCOc3ccc(C(=O)CCC(=O)O)cc3)CC2)c1 [Compound 12]
- Drop in glycaemia (in % of the initial value) After 1 hour: 19%
- Drop in glycaemia (in % of the initial value) After 2 hours: 32%

Compound: CN(C)C(=N)N=C(N)N [Metformin, reference compound]
- Drop in glycaemia (in % of the initial value) After 1 hour: 22%
- Drop in glycaemia (in % of the initial value) After 2 hours: 27%
